Reference: patent publication US20180161425A1, “NOVEL PROTEIN STRUCTURE USED FOR EFFICIENT ANTIBODY PRODUCTION IN IMMUNIZATION” (priority 2014, published 2018)
Where “and” joins values, the source holds several entries; their conditions need not be identical. Equal values may be shown once.

Legend:
[1] = system: MDCK cells; format: cell-based
[2] = system: MCP-1; design: species or system mice; details: mouse, in vivo

MPRLFKIYAKNYFLTYPN [TYLCV-AH]
cell binding activity when compared to AH2 peptide [1]: 25%

DRLFFKCIYRRLKYGLKRG [AH3]
cell binding and internalization of FITC labeled peptide [1]: did not bind to the membrane as well as AH2, they did all bind and were internalized to the cell at different levels

flagellin
plasma MCP-1 level [2]: 3000 pg/mL and 2600 pg/mL

RTLSLLRRLFFKSDLGFL [AHV-AH]
cell binding activity when compared to AH2 peptide [1]: 40%

DRLFFKCVYRLFKHGLKRG [AH4]
cell binding and internalization of FITC labeled peptide [1]: did not bind to the membrane as well as AH2, they did all bind and were internalized to the cell at different levels

MHSATAAQLETLRLFKFP [ANMV-AH]
cell binding activity when compared to AH2 peptide [1]: 15%

KRLFKLSYIETRYMASDK [SWS-AH]
cell binding activity when compared to AH2 peptide [1]: 24%

DRLFFKCIYRRFKYGLKRG [AH5]
cell binding and internalization of FITC labeled peptide [1]: did not bind to the membrane as well as AH2, they did all bind and were internalized to the cell at different levels
